Data as given in PubChem BioAssay AID330 (DTP/NCI, 2004).
Several values for one entry are separate records, joined by “and”; a condition that tells them apart may be missing. Equal values may be shown once. Inconclusive results and toxic doses are left out.

Test system: P388 leukemia ip, CD2F1 mice, survival T/C
Assay: NCI In Vivo Anticancer Drug Screen. Data for tumor model P388 Leukemia (intraperitoneal) in CD2F1 (CDF1) mice
Conditions: endpoint: median survival time, higher = longer survival
Outline: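 Mice carrying the transplanted tumor received test compound or vehicle. Survival was recorded in each group, and the value is the treated-group measurement divided by that of the vehicle-treated control group.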

[1] = dose: 60.0 mg/kg/injection, schedule: Q01DX005 (ip), vehicle: saline with Tween-80
[2] = dose: 50.0 mg/kg/injection, schedule: Q01DX009 (ip), vehicle: Klucel (hydroxypropylcellulose) (HPC)
[3] = dose: 100.0 mg/kg/injection, schedule: Q01DX009 (ip), vehicle: Klucel (hydroxypropylcellulose) (HPC)
[4] = dose: 200.0 mg/kg/injection, schedule: Q01DX009 (ip), vehicle: Klucel (hydroxypropylcellulose) (HPC)
[5] = dose: 400.0 mg/kg/injection, schedule: Q01DX009 (ip), vehicle: Klucel (hydroxypropylcellulose) (HPC)
[6] = dose: 50.0 mg/kg/injection, schedule: Q01DX009 (ip), vehicle: saline
[7] = dose: 50.0 mg/kg/injection, schedule: Q01DX005 (ip), vehicle: Klucel (hydroxypropylcellulose) (HPC)
[8] = dose: 100.0 mg/kg/injection, schedule: Q01DX005 (ip), vehicle: Klucel (hydroxypropylcellulose) (HPC)
[9] = dose: 120.0 mg/kg/injection, schedule: Q01DX005 (ip), vehicle: saline with Tween-80
[10] = dose: 240.0 mg/kg/injection, schedule: Q01DX005 (ip), vehicle: saline with Tween-80
[11] = dose: 60.0 mg/kg/injection, schedule: Q01DX005 (ip), vehicle: saline
[12] = dose: 120.0 mg/kg/injection, schedule: Q01DX005 (ip), vehicle: saline
[13] = dose: 12.5 mg/kg/injection, schedule: Q01DX005 (ip), vehicle: saline
[14] = dose: 50.0 mg/kg/injection, schedule: Q01DX005 (ip), vehicle: saline
[15] = dose: 100.0 mg/kg/injection, schedule: Q01DX005 (ip), vehicle: saline
[16] = dose: 200.0 mg/kg/injection, schedule: Q01DX005 (ip), vehicle: saline

CC1C/C(=C\N=[N+]=[N-])C(=O)O1 (stereo not drawn)
T/C (dose: 15.0 mg/kg/injection, schedule: Q01DX005 (ip), vehicle: saline with Tween-80): 107 % of control | T/C (dose: 30.0 mg/kg/injection, schedule: Q01DX005 (ip), vehicle: saline with Tween-80): 105 % of control | T/C [1]: 105 % of control and 94 % of control

O=C1N[C@H]2[C@H](CS[C@H]2CCCCC(=O)N(CCP(c2ccccc2)c2ccccc2)CCP(c2ccccc2)c2ccccc2)N1
T/C (dose: 12.5 mg/kg/injection, schedule: Q01DX009 (ip), vehicle: Klucel (hydroxypropylcellulose) (HPC)): 104 % of control and 111 % of control | T/C (dose: 25.0 mg/kg/injection, schedule: Q01DX009 (ip), vehicle: Klucel (hydroxypropylcellulose) (HPC)): 101 % of control and 105 % of control | T/C [2]: 103 % of control and 104 % of control | T/C [3]: 108 % of control and 124 % of control | T/C [4]: 114 % of control and 119 % of control | T/C [5]: 102 % of control and 114 % of control

CNC(=O)OC1CC2CCCCC2C([N+](C)(C)C)C1 (stereo not drawn)
T/C (dose: 12.5 mg/kg/injection, schedule: Q01DX009 (ip), vehicle: saline): 105 % of control | T/C (dose: 25.0 mg/kg/injection, schedule: Q01DX009 (ip), vehicle: saline): 112 % of control | T/C [6]: 100 % of control and 106 % of control

CCN(CC)CC(O)c1cc(-c2ccccc2)nc2ccc(OC)cc12 (stereo not drawn)
T/C [7]: 100 % of control | T/C [8]: 92 % of control

N#CC(C(=O)CCC(=O)C(C#N)c1ccccc1Cl)c1ccccc1Cl (stereo not drawn)
T/C [1]: 104 % of control | T/C [9]: 114 % of control | T/C [10]: 111 % of control

COc1c(Cl)cc2c(c1OC)N(C)C1N3C(=O)C4(C)SSC3(C(=O)N4C)C(O)C21O (stereo not drawn)
T/C (dose: 0.03 mg/kg/injection, schedule: Q01DX009 (ip), vehicle: Klucel (hydroxypropylcellulose) (HPC)): 100 % of control and 118 % of control | T/C (dose: 0.06 mg/kg/injection, schedule: Q01DX009 (ip), vehicle: Klucel (hydroxypropylcellulose) (HPC)): 89 % of control | T/C (dose: 0.13 mg/kg/injection, schedule: Q01DX009 (ip), vehicle: Klucel (hydroxypropylcellulose) (HPC)): 96 % of control | T/C (dose: 0.5 mg/kg/injection, schedule: Q01DX009 (ip), vehicle: Klucel (hydroxypropylcellulose) (HPC)): 94 % of control

CC(COCNc1ccccc1)C(=O)O (stereo not drawn)
T/C [2]: 103 % of control | T/C [3]: 103 % of control | T/C [4]: 100 % of control

CC1(CCl)COP(=O)(NN)OC1 (stereo not drawn)
T/C [11]: 101 % of control | T/C [12]: 102 % of control

COc1cc(CCN=Cc2ccccc2O)c([N+](=O)[O-])cc1OC
T/C [7]: 97 % of control | T/C [8]: 100 % of control | T/C (dose: 200.0 mg/kg/injection, schedule: Q01DX005 (ip), vehicle: Klucel (hydroxypropylcellulose) (HPC)): 92 % of control

Nc1ncncc1-c1ccc2ccccc2c1
T/C [2]: 95 % of control | T/C [3]: 92 % of control | T/C [4]: 96 % of control

ClC1=NOC(c2ccccc2)C1 (stereo not drawn)
T/C (dose: 6.25 mg/kg/injection, schedule: Q01DX005 (ip), vehicle: distilled water + Tween-80): 110 % of control | T/C (dose: 12.5 mg/kg/injection, schedule: Q01DX005 (ip), vehicle: distilled water + Tween-80): 97 % of control | T/C (dose: 25.0 mg/kg/injection, schedule: Q01DX005 (ip), vehicle: distilled water + Tween-80): 100 % of control | T/C (dose: 50.0 mg/kg/injection, schedule: Q01DX005 (ip), vehicle: distilled water + Tween-80): 105 % of control and 107 % of control | T/C (dose: 100.0 mg/kg/injection, schedule: Q01DX005 (ip), vehicle: distilled water + Tween-80): 99 % of control | T/C (dose: 200.0 mg/kg/injection, schedule: Q01DX005 (ip), vehicle: distilled water + Tween-80): 108 % of control

Oc1ccc2ccccc2c1C(c1ccc(Cl)cc1)c1c(O)ccc2ccccc12
T/C (dose: 50.0 mg/kg/injection, schedule: Q01DX005 (ip), vehicle: saline with Tween-80): 100 % of control | T/C (dose: 100.0 mg/kg/injection, schedule: Q01DX005 (ip), vehicle: saline with Tween-80): 101 % of control | T/C (dose: 200.0 mg/kg/injection, schedule: Q01DX005 (ip), vehicle: saline with Tween-80): 107 % of control

CCOC(=O)C1=C(O)C(=O)C=C(O)C1=N
T/C [11]: 94 % of control | T/C [12]: 94 % of control | T/C (dose: 240.0 mg/kg/injection, schedule: Q01DX005 (ip), vehicle: saline): 97 % of control

Cc1ccc(S(=O)(=O)OC[C@@H]2CCCC[C@H]2COS(=O)(=O)c2ccc(C)cc2)cc1
T/C [3]: 98 % of control | T/C [4]: 98 % of control | T/C [5]: 98 % of control

Clc1cnc2n[se]nc2c1
T/C (dose: 25.0 mg/kg/injection, schedule: Q04DX002 (ip), vehicle: saline): 106 % of control | T/C (dose: 50.0 mg/kg/injection, schedule: Q04DX002 (ip), vehicle: saline): 116 % of control | T/C (dose: 100.0 mg/kg/injection, schedule: Q04DX002 (ip), vehicle: saline): 105 % of control and 114 % of control

COCC1(C)CCCC2(C)C1CCC13CCC(OC(C)=O)CC12O3 (stereo not drawn)
T/C (dose: 100.0 mg/kg/injection, schedule: Q01DX001 (ip), vehicle: saline): 102 % of control | T/C (dose: 200.0 mg/kg/injection, schedule: Q01DX001 (ip), vehicle: saline): 108 % of control | T/C (dose: 400.0 mg/kg/injection, schedule: Q01DX001 (ip), vehicle: saline): 110 % of control

CCCCOC(=O)C1C2CCC(O2)C1C(N)=O (stereo not drawn)
T/C [1]: 99 % of control | T/C [9]: 100 % of control

O=C(Nc1ccc(Cl)cc1)Nc1nnc2nc(C(C(=O)/C=C/c3ccccc3)c3nc4nnc(NC(=O)Nc5ccc(Cl)cc5)n4[nH]c3=O)c(=O)[nH]n12
T/C [1]: 103 % of control | T/C [9]: 95 % of control | T/C [10]: 91 % of control

Cc1c2oc3c(C)c([N+](=O)[O-])cc(C(=O)NC4C(=O)NC(C(C)C)C(=O)N5CCCC5C(=O)N(C)CC(=O)N(C)C(C(C)C)C(=O)OC4C)c3nc-2c(C(=O)NC2C(=O)NC(C(C)C)C(=O)N3CCCC3C(=O)N(C)CC(=O)N(C)C(C(C)C)C(=O)OC2C)c(N)c1=O (stereo not drawn)
T/C (dose: 0.01 mg/kg/injection, schedule: Q01DX009 (ip), vehicle: Klucel (hydroxypropylcellulose) (HPC)): 90 % of control | T/C (dose: 0.02 mg/kg/injection, schedule: Q01DX009 (ip), vehicle: Klucel (hydroxypropylcellulose) (HPC)): 106 % of control | T/C (dose: 0.04 mg/kg/injection, schedule: Q01DX009 (ip), vehicle: Klucel (hydroxypropylcellulose) (HPC)): 108 % of control | T/C (dose: 0.08 mg/kg/injection, schedule: Q01DX009 (ip), vehicle: Klucel (hydroxypropylcellulose) (HPC)): 120 % of control and 217 % of control | T/C (dose: 0.3 mg/kg/injection, schedule: Q01DX009 (ip), vehicle: Klucel (hydroxypropylcellulose) (HPC)): 218 % of control

COC(=O)CC(N)C(=O)O (stereo not drawn)
T/C [13]: 97 % of control | T/C (dose: 25.0 mg/kg/injection, schedule: Q01DX005 (ip), vehicle: saline): 89 % of control | T/C [14]: 99 % of control | T/C [15]: 97 % of control | T/C [16]: 94 % of control

Cc1ccnn1C(C(=O)c1ccccc1)c1ccccc1 (stereo not drawn)
T/C (dose: 50.0 mg/kg/injection, schedule: Q01DX009 (ip), vehicle: saline with Tween-80): 108 % of control | T/C (dose: 100.0 mg/kg/injection, schedule: Q01DX009 (ip), vehicle: saline with Tween-80): 105 % of control | T/C (dose: 200.0 mg/kg/injection, schedule: Q01DX009 (ip), vehicle: saline with Tween-80): 105 % of control

COCN(CCc1ccccc1)CCN(C)C
T/C [6]: 113 % of control | T/C (dose: 100.0 mg/kg/injection, schedule: Q01DX009 (ip), vehicle: saline): 109 % of control

CCOC(=O)C1=CNN=CC12C(=O)C(C(=O)OCC)CC2C(=O)OCC (stereo not drawn)
T/C (dose: 100.0 mg/kg/injection, schedule: Q04DX002 (ip), vehicle: saline with Tween-80): 96 % of control | T/C (dose: 200.0 mg/kg/injection, schedule: Q04DX002 (ip), vehicle: saline with Tween-80): 93 % of control | T/C (dose: 400.0 mg/kg/injection, schedule: Q04DX002 (ip), vehicle: saline with Tween-80): 92 % of control

CC(=O)NC1=CC(=Nc2ccc(N(C)C)cc2)C=CC1=O
T/C (dose: 3.12 mg/kg/injection, schedule: Q01DX005 (ip), vehicle: saline): 114 % of control | T/C (dose: 6.25 mg/kg/injection, schedule: Q01DX005 (ip), vehicle: saline): 112 % of control | T/C [13]: 102 % of control

N#Cc1ccc(N=NN2CCOC2)cc1
T/C [1]: 86 % of control | T/C [9]: 100 % of control | T/C [10]: 93 % of control

OC1CCC(O)C1 (stereo not drawn)
T/C [14]: 100 % of control | T/C [15]: 105 % of control | T/C [16]: 98 % of control

Cn1nnnc1CC(=O)O
T/C (dose: 100.0 mg/kg/injection, schedule: Q04DX003 (ip), vehicle: saline): 99 % of control | T/C (dose: 200.0 mg/kg/injection, schedule: Q04DX003 (ip), vehicle: saline): 108 % of control | T/C (dose: 400.0 mg/kg/injection, schedule: Q04DX003 (ip), vehicle: saline): 103 % of control
